Assay results taken from paper PMC3237907 (Nano letters, 2011).

Target: T1, ParM mutant (His6/K33A/D63C/T174A/T175N/D224C/C287A), TMR-labelled ADP sensor (Escherichia coli, UniProt P11904, C287A/D224C/D63C/K33A/T174A/T175N)
T1 sequence (P11904 1-320 K33A/D63C/T174A/T175N/D224C/C287A): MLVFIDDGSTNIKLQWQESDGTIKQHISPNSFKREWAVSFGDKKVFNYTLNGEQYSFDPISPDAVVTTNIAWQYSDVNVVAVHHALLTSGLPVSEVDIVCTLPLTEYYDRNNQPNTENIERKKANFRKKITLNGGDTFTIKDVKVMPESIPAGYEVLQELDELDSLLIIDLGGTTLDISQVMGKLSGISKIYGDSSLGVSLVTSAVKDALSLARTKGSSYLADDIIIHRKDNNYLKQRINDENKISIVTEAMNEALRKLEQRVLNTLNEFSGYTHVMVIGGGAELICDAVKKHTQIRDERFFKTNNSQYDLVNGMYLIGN
Assay: single-molecule TIRF, TMR self-quenching
Assay type: binding

SMILES: Nc1ncnc2c1ncn2[C@@H]1O[C@H](COP(=O)(O)OP(=O)(O)O)[C@@H](O)[C@H]1O [ADP]
- Kd: 20 ± 3 µM
